Laboratory results taken from BigSolDB 2.1.

Cc1nc(C)c(C)nc1C
solubility (mole fraction)
Settings | in acetone | in acetonitrile | in ethanol | in ethyl acetate | in isopropanol | in methanol | in methyl acetate | in n-butanol | in n-propanol
273.15 K | 0.0459 | 0.0279 | 0.0644 | 0.0958 | 0.0534 | 0.111 | 0.0758 | 0.106 | 0.102
278.15 K | 0.0592 | 0.034 | 0.0775 | 0.113 | 0.0702 | 0.119 | 0.094 | 0.126 | 0.114
283.15 K | 0.0712 | 0.0405 | 0.0911 | 0.136 | 0.0814 | 0.143 | 0.112 | 0.152 | 0.138
288.15 K | 0.0869 | 0.0503 | 0.11 | 0.16 | 0.0998 | 0.162 | 0.133 | 0.175 | 0.158
293.15 K | 0.106 | 0.0587 | 0.128 | 0.181 | 0.115 | 0.194 | 0.156 | 0.205 | 0.185
298.15 K | 0.132 | 0.0743 | 0.162 | 0.212 | 0.142 | 0.222 | 0.189 | 0.235 | 0.213
303.15 K | 0.156 | 0.0888 | 0.186 | 0.244 | 0.166 | 0.262 | 0.216 | 0.262 | 0.245
308.15 K | 0.185 | 0.115 | 0.216 | 0.284 | 0.196 | 0.296 | 0.254 | 0.302 | 0.3
313.15 K | 0.209 | 0.147 | 0.255 | 0.34 | 0.249 | 0.342 | 0.291 | 0.351 | 0.347
